Experimental data published in paper PMC12394658, “Discovery of Zharp1-163 as a dual inhibitor of ferroptosis and necroptosis for the treatment of inflammatory disorders and kidney injury” (Cell Death Discovery, 2025).

Columns and labels:
RIPK1 = RIPK1 (Homo sapiens, UniProt Q13546); assay: ADP-Glo kinase assay with recombinant RIPK1 ([…] ATP, MBP substrate); binding curve also shown in Fig. 4A; format: biochemical
AKT1 = AKT1 (Homo sapiens, UniProt P31749); assay: biochemical; parameters: Kinase selectivity panel of 81 human kinases, ADP-Glo or HTRF, per cent inhibition at 1 uM
How it was run: (§1)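 Kinase-panel selectivity profiling of 81 kinases with compound at 1000 nM.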

BRAF = BRAF (Homo sapiens, UniProt P15056); assay: biochemical; parameters: Kinase selectivity panel of 81 human kinases, ADP-Glo or HTRF, per cent inhibition at 1 uM
How it was run: as §1

CDK1/CycE1 = CDK1/CycE1 (Homo sapiens, UniProt P06493); assay: biochemical; parameters: Kinase selectivity panel of 81 human kinases, ADP-Glo or HTRF, per cent inhibition at 1 uM
How it was run: as §1

CDK18/CycY = CDK18/CycY (Homo sapiens, UniProt Q07002); assay: biochemical; parameters: Kinase selectivity panel of 81 human kinases, ADP-Glo or HTRF, per cent inhibition at 1 uM
How it was run: as §1

MAPKAPK2 = MAPKAPK2 (Homo sapiens, UniProt P49137); assay: biochemical; parameters: Kinase selectivity panel of 81 human kinases, ADP-Glo or HTRF, per cent inhibition at 1 uM
How it was run: as §1

NEK2 = NEK2 (Homo sapiens, UniProt P51955); assay: biochemical; parameters: Kinase selectivity panel of 81 human kinases, ADP-Glo or HTRF, per cent inhibition at 1 uM
How it was run: as §1

PKACα = target: T1, PKACα (Homo sapiens, UniProt P17612); assay: biochemical; parameters: Kinase selectivity panel of 81 human kinases, ADP-Glo or HTRF, per cent inhibition at 1 uM
T1 construct: gene PRKACA
How it was run: as §1

QIK = target: T2, QIK (Homo sapiens, UniProt Q9H0K1); assay: biochemical; parameters: Kinase selectivity panel of 81 human kinases, ADP-Glo or HTRF, per cent inhibition at 1 uM
T2 construct: gene SIK2
How it was run: as §1

RSK1 = target: T3, RSK1 (Homo sapiens, UniProt Q15418); assay: biochemical; parameters: Kinase selectivity panel of 81 human kinases, ADP-Glo or HTRF, per cent inhibition at 1 uM
T3 construct: gene RPS6KA1
How it was run: as §1

WEE1 = WEE1 (Homo sapiens, UniProt P30291); assay: biochemical; parameters: Kinase selectivity panel of 81 human kinases, ADP-Glo or HTRF, per cent inhibition at 1 uM
How it was run: as §1

p38α = target: T4, p38α (Homo sapiens, UniProt Q16539); assay: biochemical; parameters: Kinase selectivity panel of 81 human kinases, ADP-Glo or HTRF, per cent inhibition at 1 uM
T4 construct: gene MAPK14
How it was run: as §1

T4 sequence (Q16539 whole entry): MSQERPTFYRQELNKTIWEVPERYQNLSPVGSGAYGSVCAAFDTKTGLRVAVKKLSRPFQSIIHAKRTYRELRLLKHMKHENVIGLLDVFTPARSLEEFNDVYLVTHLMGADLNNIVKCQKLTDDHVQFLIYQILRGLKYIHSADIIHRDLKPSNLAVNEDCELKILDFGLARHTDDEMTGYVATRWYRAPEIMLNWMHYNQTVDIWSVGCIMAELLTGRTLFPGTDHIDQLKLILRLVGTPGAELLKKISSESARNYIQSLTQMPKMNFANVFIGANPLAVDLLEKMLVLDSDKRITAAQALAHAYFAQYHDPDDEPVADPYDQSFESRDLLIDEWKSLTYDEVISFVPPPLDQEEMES
Chain of AKT1 (P31749 whole entry): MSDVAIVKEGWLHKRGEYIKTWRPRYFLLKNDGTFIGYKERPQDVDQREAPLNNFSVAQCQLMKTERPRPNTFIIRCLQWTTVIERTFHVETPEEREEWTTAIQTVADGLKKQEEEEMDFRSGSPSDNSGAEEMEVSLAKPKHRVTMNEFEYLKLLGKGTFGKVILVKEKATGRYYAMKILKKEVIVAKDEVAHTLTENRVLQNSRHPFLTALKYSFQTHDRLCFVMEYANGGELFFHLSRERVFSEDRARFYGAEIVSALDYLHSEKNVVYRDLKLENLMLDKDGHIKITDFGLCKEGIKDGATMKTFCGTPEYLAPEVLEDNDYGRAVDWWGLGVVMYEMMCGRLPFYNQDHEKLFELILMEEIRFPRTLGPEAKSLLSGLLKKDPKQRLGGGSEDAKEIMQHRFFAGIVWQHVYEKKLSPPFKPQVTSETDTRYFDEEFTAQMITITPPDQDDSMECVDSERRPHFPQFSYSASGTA
Chain of NEK2 (P51955 whole entry): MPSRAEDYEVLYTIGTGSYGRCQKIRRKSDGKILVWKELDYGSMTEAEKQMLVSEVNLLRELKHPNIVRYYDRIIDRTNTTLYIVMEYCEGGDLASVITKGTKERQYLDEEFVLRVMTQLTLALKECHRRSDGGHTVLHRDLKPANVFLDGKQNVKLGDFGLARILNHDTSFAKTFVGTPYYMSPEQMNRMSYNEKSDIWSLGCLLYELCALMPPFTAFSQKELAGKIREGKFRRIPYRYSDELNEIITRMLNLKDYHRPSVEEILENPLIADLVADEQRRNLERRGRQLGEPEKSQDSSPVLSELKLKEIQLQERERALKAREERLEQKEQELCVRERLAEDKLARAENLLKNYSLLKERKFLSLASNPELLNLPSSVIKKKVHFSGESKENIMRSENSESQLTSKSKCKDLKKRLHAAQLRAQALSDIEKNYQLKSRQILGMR
Chain of MAPKAPK2 (P49137 whole entry): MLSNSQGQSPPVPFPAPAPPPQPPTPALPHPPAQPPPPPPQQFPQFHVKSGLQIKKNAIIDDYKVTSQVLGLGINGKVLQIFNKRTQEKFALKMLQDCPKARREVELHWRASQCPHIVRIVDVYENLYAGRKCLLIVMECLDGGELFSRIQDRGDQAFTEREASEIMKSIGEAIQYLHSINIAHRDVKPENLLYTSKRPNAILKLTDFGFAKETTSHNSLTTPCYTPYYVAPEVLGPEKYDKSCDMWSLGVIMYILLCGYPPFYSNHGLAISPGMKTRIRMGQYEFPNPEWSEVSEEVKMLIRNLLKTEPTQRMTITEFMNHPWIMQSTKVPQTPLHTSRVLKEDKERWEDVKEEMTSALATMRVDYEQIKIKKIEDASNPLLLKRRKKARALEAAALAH
Chain of BRAF (P15056 whole entry): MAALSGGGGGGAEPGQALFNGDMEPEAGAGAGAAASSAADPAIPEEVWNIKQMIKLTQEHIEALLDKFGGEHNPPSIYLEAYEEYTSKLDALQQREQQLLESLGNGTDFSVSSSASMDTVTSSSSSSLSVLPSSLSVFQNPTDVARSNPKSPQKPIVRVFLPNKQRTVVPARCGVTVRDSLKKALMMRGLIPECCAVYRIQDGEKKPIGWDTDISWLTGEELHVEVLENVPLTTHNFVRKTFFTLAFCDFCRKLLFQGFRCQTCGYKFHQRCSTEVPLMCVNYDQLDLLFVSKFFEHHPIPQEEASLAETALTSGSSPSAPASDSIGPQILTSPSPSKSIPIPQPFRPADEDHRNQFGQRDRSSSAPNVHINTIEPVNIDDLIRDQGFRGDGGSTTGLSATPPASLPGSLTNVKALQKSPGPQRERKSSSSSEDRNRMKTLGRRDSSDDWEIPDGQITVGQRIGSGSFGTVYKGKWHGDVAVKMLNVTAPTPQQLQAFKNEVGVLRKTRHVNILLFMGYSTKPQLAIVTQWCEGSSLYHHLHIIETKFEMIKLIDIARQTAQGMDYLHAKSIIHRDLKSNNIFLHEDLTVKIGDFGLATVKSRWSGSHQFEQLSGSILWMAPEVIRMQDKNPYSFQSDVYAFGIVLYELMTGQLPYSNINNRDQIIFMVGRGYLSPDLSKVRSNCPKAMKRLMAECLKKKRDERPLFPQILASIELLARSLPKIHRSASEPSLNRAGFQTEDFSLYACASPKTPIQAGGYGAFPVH
Chain of CDK18/CycY (Q07002 whole entry): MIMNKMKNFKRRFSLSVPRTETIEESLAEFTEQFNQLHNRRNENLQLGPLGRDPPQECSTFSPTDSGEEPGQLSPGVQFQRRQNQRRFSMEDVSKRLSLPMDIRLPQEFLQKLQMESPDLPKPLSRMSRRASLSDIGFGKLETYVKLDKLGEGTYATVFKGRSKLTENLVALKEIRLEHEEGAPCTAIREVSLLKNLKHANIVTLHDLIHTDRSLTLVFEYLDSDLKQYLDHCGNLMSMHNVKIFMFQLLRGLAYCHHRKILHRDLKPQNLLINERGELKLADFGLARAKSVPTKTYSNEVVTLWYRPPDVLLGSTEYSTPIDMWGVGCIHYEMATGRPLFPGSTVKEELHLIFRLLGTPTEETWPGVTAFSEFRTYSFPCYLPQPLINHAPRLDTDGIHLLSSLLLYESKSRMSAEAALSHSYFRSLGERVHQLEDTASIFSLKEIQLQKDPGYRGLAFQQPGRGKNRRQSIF
Chain of CDK18/CycY (Q8ND76 whole entry partner): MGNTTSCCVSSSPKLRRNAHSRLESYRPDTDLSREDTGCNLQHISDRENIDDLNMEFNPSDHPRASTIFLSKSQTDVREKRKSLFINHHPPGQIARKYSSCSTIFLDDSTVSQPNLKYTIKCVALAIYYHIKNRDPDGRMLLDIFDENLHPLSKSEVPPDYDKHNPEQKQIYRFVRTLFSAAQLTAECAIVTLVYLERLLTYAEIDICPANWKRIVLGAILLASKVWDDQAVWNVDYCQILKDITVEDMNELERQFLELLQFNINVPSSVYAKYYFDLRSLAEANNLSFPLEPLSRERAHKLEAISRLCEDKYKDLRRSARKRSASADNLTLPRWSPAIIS
T2 sequence (Q9H0K1 whole entry): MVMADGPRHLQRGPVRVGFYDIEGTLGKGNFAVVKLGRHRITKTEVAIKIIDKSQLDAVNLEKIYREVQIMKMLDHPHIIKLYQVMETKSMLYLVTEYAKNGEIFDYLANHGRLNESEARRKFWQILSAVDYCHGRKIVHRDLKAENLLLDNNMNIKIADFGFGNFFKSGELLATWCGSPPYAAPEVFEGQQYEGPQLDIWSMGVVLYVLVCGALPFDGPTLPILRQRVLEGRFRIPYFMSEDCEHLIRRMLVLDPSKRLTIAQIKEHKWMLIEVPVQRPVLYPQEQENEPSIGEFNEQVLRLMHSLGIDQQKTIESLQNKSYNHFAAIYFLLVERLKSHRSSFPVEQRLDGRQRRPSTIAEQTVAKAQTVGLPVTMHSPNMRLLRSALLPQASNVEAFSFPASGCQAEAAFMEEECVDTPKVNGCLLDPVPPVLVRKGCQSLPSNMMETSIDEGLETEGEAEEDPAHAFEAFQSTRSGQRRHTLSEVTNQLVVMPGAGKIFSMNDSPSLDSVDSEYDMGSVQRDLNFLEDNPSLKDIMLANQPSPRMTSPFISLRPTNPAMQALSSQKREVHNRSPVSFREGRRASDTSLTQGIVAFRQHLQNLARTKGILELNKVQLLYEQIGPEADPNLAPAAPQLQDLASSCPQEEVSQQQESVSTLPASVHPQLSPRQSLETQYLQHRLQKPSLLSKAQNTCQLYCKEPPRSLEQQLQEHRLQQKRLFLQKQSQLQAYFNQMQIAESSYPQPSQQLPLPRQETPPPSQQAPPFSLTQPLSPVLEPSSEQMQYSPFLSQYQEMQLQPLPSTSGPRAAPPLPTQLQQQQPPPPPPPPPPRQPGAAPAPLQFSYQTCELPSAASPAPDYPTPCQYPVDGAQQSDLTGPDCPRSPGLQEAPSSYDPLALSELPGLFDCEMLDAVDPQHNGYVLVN
T3 sequence (Q15418 whole entry): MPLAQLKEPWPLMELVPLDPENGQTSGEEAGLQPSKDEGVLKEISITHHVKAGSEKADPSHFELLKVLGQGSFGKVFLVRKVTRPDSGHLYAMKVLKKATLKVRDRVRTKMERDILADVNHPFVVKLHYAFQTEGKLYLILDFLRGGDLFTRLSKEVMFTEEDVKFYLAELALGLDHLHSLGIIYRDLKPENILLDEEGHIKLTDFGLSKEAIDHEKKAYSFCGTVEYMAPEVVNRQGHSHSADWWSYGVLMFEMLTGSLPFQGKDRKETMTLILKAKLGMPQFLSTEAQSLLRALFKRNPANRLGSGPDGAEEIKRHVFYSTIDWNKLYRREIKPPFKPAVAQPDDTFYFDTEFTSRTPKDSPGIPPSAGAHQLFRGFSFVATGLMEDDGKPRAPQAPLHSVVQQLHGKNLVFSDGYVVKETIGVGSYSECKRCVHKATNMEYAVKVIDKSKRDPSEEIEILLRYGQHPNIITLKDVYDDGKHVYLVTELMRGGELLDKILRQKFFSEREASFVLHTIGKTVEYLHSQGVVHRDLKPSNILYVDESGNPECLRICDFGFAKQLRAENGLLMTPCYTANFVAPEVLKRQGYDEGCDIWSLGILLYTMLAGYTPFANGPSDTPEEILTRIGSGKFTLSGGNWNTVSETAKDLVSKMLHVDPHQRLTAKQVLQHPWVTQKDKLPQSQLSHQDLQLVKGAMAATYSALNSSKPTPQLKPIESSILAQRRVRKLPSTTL

IC50 (RIPK1): ~406 nM
inhibition at 1 µM (AKT1; replicate Data1): -1.95%
inhibition at 1 µM (AKT1; replicate Data2): 6.27%
inhibition at 1 µM (BRAF; replicate Data1): 6.11%
inhibition at 1 µM (BRAF; replicate Data2): -8.57%
inhibition at 1 µM (CDK1/CycE1; replicate Data1): 5.77%
inhibition at 1 µM (CDK1/CycE1; replicate Data2): 6.95%
inhibition at 1 µM (CDK18/CycY; replicate Data1): 4.89%
inhibition at 1 µM (CDK18/CycY; replicate Data2): -0.64%
inhibition at 1 µM (MAPKAPK2; replicate Data1): -3.5%
inhibition at 1 µM (MAPKAPK2; replicate Data2): -31.8%
inhibition at 1 µM (NEK2; replicate Data1): -4.5%
inhibition at 1 µM (NEK2; replicate Data2): 1.76%
inhibition at 1 µM (PKACα; replicate Data1): -0.64%
inhibition at 1 µM (PKACα; replicate Data2): 3.94%
inhibition at 1 µM (QIK; replicate Data1): 9.18%
inhibition at 1 µM (QIK; replicate Data2): 2.94%
inhibition at 1 µM (RSK1; replicate Data1): 6.09%
inhibition at 1 µM (RSK1; replicate Data2): 5.81%
inhibition at 1 µM (WEE1; replicate Data1): 9.26%
inhibition at 1 µM (WEE1; replicate Data2): 4.33%
inhibition at 1 µM (p38α; replicate Data1): 11.8%
inhibition at 1 µM (p38α; replicate Data2): 9.57%
SMILES: Nc1cn2cc(-c3cnc4c(c3)N(C(=O)OC3CCCCC3)CCO4)ccc2n1 [Zharp1-163]
